{
  "source": "patent US20070049564A1",
  "about": "(Wyeth, priority 2005, published 2007)",
  "key": {"Staph.": {"system": "Staph.", "experiment": "Range of MIC for Staph. strains, including MRSA", "details": "Staphylococcus aureus, MRSA"}, "S. typhimurium GC 2172": {"system": "S. typhimurium GC 2172", "experiment": "MIC, broth microdilution", "details": "Salmonella enterica, TYPHIMURIUM, S. typhimurium GC 2172"}, "E. coli GC 4559": {"system": "E. coli GC 4559", "experiment": "MIC, broth microdilution", "details": "Escherichia coli, GC4559, E. coli GC 4559"}, "E. coli GC 2235": {"system": "E. coli GC 2235", "experiment": "MIC, broth microdilution", "details": "Escherichia coli, GC2235, E. coli GC 2235"}, "S. pneumoniae* GC 4465": {"system": "S. pneumoniae* GC 4465", "experiment": "MIC, broth microdilution", "details": "Streptococcus pneumoniae, S. pneumoniae* GC 4465"}, "S. aureus GC 6466": {"system": "S. aureus GC 6466", "experiment": "MIC, broth microdilution", "details": "Staphylococcus aureus, GC6466, S. aureus GC 6466"}, "Staph. aureus Smith": {"system": "Staph. aureus Smith", "experiment": "In vivo activity (oral, iv; ED50) against Staph. aureus Smith in mice", "description": "Representative examples of compounds of Formula I were tested for the oral efficacy using S. aureus Smith in mice."}, "S. aureus GC 4536": {"system": "S. aureus GC 4536", "experiment": "MIC, broth microdilution", "details": "Staphylococcus aureus, GC4536, S. aureus GC 4536"}, "E. faecalis GC 2242": {"system": "E. faecalis GC 2242", "experiment": "MIC, broth microdilution", "details": "Enterococcus faecalis, GC2242, E. faecalis GC 2242"}, "E. coli GC 2231": {"system": "E. coli GC 2231", "experiment": "MIC, broth microdilution", "details": "Escherichia coli, GC2231, E. coli GC 2231", "description": "Antimicrobial susceptibility testing. The in vitro activities of the antibiotics are determined by the broth microdilution method as recommended by the National Committee for Clinical Laboratory Standards (NCCLS) (1). Mueller-Hinton II broth (MHBII)(BBL Cockeysville, Md.) is the medium employed in the testing procedures. Microtiter plates containing serial dilutions of each antimicrobial agent are inoculated with each organism to yield the appropriate density (10^5 CFU/ml) in a 100 μl final volume. The plates are incubated for 18-22 hours at 35° C. in ambient air.\nRepresentative compounds were first incubated in mouse serum for an hour prior to the in vitro testing against a panel of selected gram-positive and gram-negative bacteria strains. All compounds were also pre-incubated in water for an hour prior to testing as control."}, "E. coli GC 2232": {"system": "E. coli GC 2232", "experiment": "MIC, broth microdilution", "details": "Escherichia coli, GC2232, E. coli GC 2232"}, "E. coli": {"system": "E. coli", "experiment": "Range of MIC for E. coli strains", "details": "Escherichia coli"}, "S. pneumoniae+ GC 4465": {"system": "S. pneumoniae+ GC 4465", "experiment": "MIC, broth microdilution", "details": "Streptococcus pneumoniae, S. pneumoniae+ GC 4465"}, "S. pyogenes GC 4563": {"system": "S. pyogenes GC 4563", "experiment": "MIC, broth microdilution", "details": "Streptococcus pyogenes, GC4563, S. pyogenes GC 4563"}, "S. agalactiae GC 4564": {"system": "S. agalactiae GC 4564", "experiment": "MIC, broth microdilution", "details": "Streptococcus agalactiae, GC4564, S. agalactiae GC 4564"}, "E. coli GC 2234": {"system": "E. coli GC 2234", "experiment": "MIC, broth microdilution", "details": "Escherichia coli, GC2234, E. coli GC 2234"}, "E. faecium GC 4556": {"system": "E. faecium GC 4556", "experiment": "MIC, broth microdilution", "details": "Enterococcus faecium, GC4556, E. faecium GC 4556"}, "E. coli GC 2236": {"system": "E. coli GC 2236", "experiment": "MIC, broth microdilution", "details": "Escherichia coli, GC2236, E. coli GC 2236"}, "E. faecalis GC 4555": {"system": "E. faecalis GC 4555", "experiment": "MIC, broth microdilution", "details": "Enterococcus faecalis, GC4555, E. faecalis GC 4555"}, "S. aureus GC 2216": {"system": "S. aureus GC 2216", "experiment": "MIC, broth microdilution", "details": "Staphylococcus aureus, GC2216, S. aureus GC 2216"}},
  "note": "Read-outs that look alike come from different tables or passages of the source.",
  "data": [
    {"smiles": "CCCN(CC(=O)Nc1cc(N(C)C)c2c(c1O)C(=O)C1=C(O)[C@]3(O)C(=O)C(C(N)=O)=C(O)[C@@H](N(C)C)[C@@H]3C[C@@H]1C2)C(=O)OCOC(=O)c1ccc(OC)cc1", "note": "[Example 6, ({[(2-{[(5aR,6aS,7S,10aS)-9-(aminocarbonyl)-4,7-bis(dimethylamino)-1,8,10a,11-tetrahydroxy-10,12-dioxo-5,5a,6,6a,7,10,10a,12-octahydrotetracen-2-yl]amino}-2-oxoethyl)(propyl)amino]carbonyl}oxy)methyl 4-methoxybenzoate]", "values": [
      {"measurement": "MIC", "setting": "Staph.; read-out: Range of MIC, Staph (Mouse Serum)", "result": "0.5 to 2", "unit": "µg/mL"},
      {"measurement": "MIC", "setting": "Staph.; read-out: Range of MIC, Staph (Water)", "result": "1 to 4", "unit": "µg/mL"},
      {"measurement": "MIC", "setting": "Staph.; read-out: Range of MIC, Staph. (mouse serum)", "result": "0.5 to 2", "unit": "µg/mL"},
      {"measurement": "MIC", "setting": "Staph.; read-out: Range of MIC, Staph. (water)", "result": "1 to 4", "unit": "µg/mL"},
      {"measurement": "MIC", "setting": "S. typhimurium GC 2172; Mouse Serum pre-incubation", "result": 8, "unit": "µg/mL"},
      {"measurement": "MIC", "setting": "S. typhimurium GC 2172; Water pre-incubation", "result": "> 64", "unit": "µg/mL"},
      {"measurement": "MIC", "setting": "E. coli GC 4559; Mouse Serum pre-incubation", "result": 2, "unit": "µg/mL"},
      {"measurement": "MIC", "setting": "E. coli GC 4559; Water pre-incubation", "result": 16, "unit": "µg/mL"},
      {"measurement": "MIC", "setting": "E. coli GC 2235; Mouse Serum pre-incubation", "result": 1, "unit": "µg/mL"},
      {"measurement": "MIC", "setting": "E. coli GC 2235; Water pre-incubation", "result": 8, "unit": "µg/mL"},
      {"measurement": "MIC", "setting": "S. pneumoniae* GC 4465; Mouse Serum pre-incubation", "result": 0.12, "unit": "µg/mL"},
      {"measurement": "MIC", "setting": "S. pneumoniae* GC 4465; Water pre-incubation", "result": 0.25, "unit": "µg/mL"},
      {"measurement": "MIC", "setting": "S. aureus GC 6466; Mouse Serum pre-incubation", "result": 0.25, "unit": "µg/mL"},
      {"measurement": "MIC", "setting": "S. aureus GC 6466; Water pre-incubation", "result": 1, "unit": "µg/mL"},
      {"measurement": "ED50", "setting": "Staph. aureus Smith; Staphylococcus aureus, in Mus musculus, po, read-out: ED50 Staph Smith SOD", "result": 20.1, "unit": "mg/kg"},
      {"measurement": "ED50", "setting": "Staph. aureus Smith; iv, read-out: ED50 Staph Smith SIV", "result": 0.87, "unit": "mg/kg"},
      {"measurement": "MIC", "setting": "S. aureus GC 4536; Mouse Serum pre-incubation", "result": 0.5, "unit": "µg/mL"},
      {"measurement": "MIC", "setting": "S. aureus GC 4536; Water pre-incubation", "result": 2, "unit": "µg/mL"},
      {"measurement": "MIC", "setting": "E. faecalis GC 2242; Mouse Serum pre-incubation", "result": 1, "unit": "µg/mL"},
      {"measurement": "MIC", "setting": "E. faecalis GC 2242; Water pre-incubation", "result": 2, "unit": "µg/mL"},
      {"measurement": "MIC", "setting": "E. coli GC 2231; Mouse Serum pre-incubation", "result": 2, "unit": "µg/mL"},
      {"measurement": "MIC", "setting": "E. coli GC 2231; Water pre-incubation", "result": 64, "unit": "µg/mL"},
      {"measurement": "MIC", "setting": "E. coli GC 2232; Mouse Serum pre-incubation", "result": 2, "unit": "µg/mL"},
      {"measurement": "MIC", "setting": "E. coli GC 2232; Water pre-incubation", "result": 32, "unit": "µg/mL"},
      {"measurement": "MIC", "setting": "E. coli; 20 h, read-out: Range of MIC, E. coli (Mouse Serum)", "result": "1 to 2", "unit": "µg/mL"},
      {"measurement": "MIC", "setting": "E. coli; read-out: Range of MIC, E. coli (Water)", "result": "8 to 64", "unit": "µg/mL"},
      {"measurement": "MIC", "setting": "E. coli; read-out: Range of MIC, E. coli (mouse serum)", "result": "1 to 2", "unit": "µg/mL"},
      {"measurement": "MIC", "setting": "E. coli; read-out: Range of MIC, E. coli (water)", "result": "8 to 64", "unit": "µg/mL"},
      {"measurement": "MIC", "setting": "S. pneumoniae+ GC 4465; Mouse Serum pre-incubation", "result": 2, "unit": "µg/mL"},
      {"measurement": "MIC", "setting": "S. pneumoniae+ GC 4465; Water pre-incubation", "result": 2, "unit": "µg/mL"},
      {"measurement": "MIC", "setting": "S. pyogenes GC 4563; Mouse Serum pre-incubation", "result": 0.25, "unit": "µg/mL"},
      {"measurement": "MIC", "setting": "S. pyogenes GC 4563; Water pre-incubation", "result": 0.25, "unit": "µg/mL"},
      {"measurement": "MIC", "setting": "S. agalactiae GC 4564; Mouse Serum pre-incubation", "result": 0.5, "unit": "µg/mL"},
      {"measurement": "MIC", "setting": "S. agalactiae GC 4564; Water pre-incubation", "result": 0.5, "unit": "µg/mL"},
      {"measurement": "MIC", "setting": "E. coli GC 2234; Mouse Serum pre-incubation", "result": 1, "unit": "µg/mL"},
      {"measurement": "MIC", "setting": "E. coli GC 2234; Water pre-incubation", "result": 16, "unit": "µg/mL"},
      {"measurement": "MIC", "setting": "E. faecium GC 4556; Mouse Serum pre-incubation", "result": 1, "unit": "µg/mL"},
      {"measurement": "MIC", "setting": "E. faecium GC 4556; Water pre-incubation", "result": 2, "unit": "µg/mL"},
      {"measurement": "MIC", "setting": "E. coli GC 2236; Mouse Serum pre-incubation", "result": 2, "unit": "µg/mL"},
      {"measurement": "MIC", "setting": "E. coli GC 2236; Water pre-incubation", "result": 8, "unit": "µg/mL"},
      {"measurement": "MIC", "setting": "E. faecalis GC 4555; Mouse Serum pre-incubation", "result": 1, "unit": "µg/mL"},
      {"measurement": "MIC", "setting": "E. faecalis GC 4555; Water pre-incubation", "result": 4, "unit": "µg/mL"},
      {"measurement": "MIC", "setting": "S. aureus GC 2216; Mouse Serum pre-incubation", "result": 0.5, "unit": "µg/mL"},
      {"measurement": "MIC", "setting": "S. aureus GC 2216; Water pre-incubation", "result": 2, "unit": "µg/mL"}
    ]}
  ]
}
